The subject of assay [1] is TSH secretion and thyroid hormone levels. The assay is described as follows: 21 h (21-45 h) infusion in protracted critical illness: TSH secretion and thyroid hormones. The format is in vivo, human. The note with it: 21 h infusion.
The test system of assay [2] is GH secretion and GH-dependent parameters. The assay is described as follows: 21 h (21-45 h) infusion in protracted critical illness: GH secretion and GH-dependent parameters. It is filed as in vivo, human. The method, then:
The inventors have also shown that infusion of GHRP-2 for 21 h in this condition increases pulsatile GH secretion >6-fold, associated with increases in IGF-I, IGFBP-3 and ALS. […] This observation strongly favors the presence of active feedback inhibition preventing overcorrection of the somatotropic axis with this strategy. Treatment with high doses of recombinant human GH has recently shown to increase morbidity and mortality of critical illness. The inability to overtreat with GH-secretagogues is an important advantage over exogenous GH, especially in the vulnerable critically ill elderly.

The subject of assay [3] is catabolism. In words: LHRH effect on catabolism resulting from testosterone deficiency. The note with it: in vivo. An excerpt: Optionally the administration of GHRP and TRH can be supplemented with Luteinizing Hormone Releasing Hormone (LHRH). A shortage of pulsatile LH secretion can lead to testosterone deficiency in males, which in turn can cause an increase in catabolism.

Take `NC(=O)[C@@H]1CCCN1C(=O)[C@H](Cc1cnc[nH]1)NC(=O)[C@@H]1CCC(=O)N1` [TRH, Thyroid Releasing Hormone]: in assay [1], the “TSH secretion (in words)” value is reported as “increasing” and the “thyroid hormone levels (in words)” value is “increasing”. Also, in assay [2] (21 h infusion), the “GH-dependent parameters (in words)” value was “did not alter”.

On to GHRP-2, for which, in assay [2] (infusion for 21 h), the “ALS (in words)” value is on record as “increases”, the “IGF-I (in words)” value is recorded as “increases”, the “IGFBP-3 (in words)” value was “increases” and the “increase in pulsatile GH secretion” value is given as greater than 6 fold.

As for “Luteinizing Hormone Releasing Hormone (QHWSYGLRPG; Gonadoliberin-1; UniProt P01148 24-33, looked up) [LHRH, Luteinizing Hormone Releasing Hormone, optional supplement to GHRP and TRH]”, in assay [3], the “effect on catabolism that results from testosterone deficiency (in words)” value is given as “no effect”.

The record behind these values is patent US6797698B1, “Method of treating prolonged critical illness and other conditions having a similar neuroendocrine pattern” (K.U. Leuven Research & Development, priority 1998, dated 2004).
